Laboratory results: patent US20120230914A1, “LABELING COMPOUND FOR PET” (RIKEN, priority 2009, published 2012)

What was measured:
[1] = Reuptake of labeled metabolite: HPLC of blood and brain extracts after tail vein injection; assay type: in vivo; settings: male rats, brain sampled 5, 10 and 20 min after injection
Method: 5, 10 and 20 min after the injection, bloods were sampled from aorta adbominalis and then the brains were taken out and homogenized. Acetonitrile was added to the bloods and homogenated brains and the resultants were subjected to centrifugation, and extracts were subjected to HPLC in order to measure labeled metabolites.
Data for “Monkey” shown in FIG. 8 was obtained by sampling vein blood along with PET imaging, centrifuging the sampled vein blood, adding acetonitrile to the blood plasma and centrifuging the blood plasma, and subjecting the extract to HPLC to measure parent compound in the blood plasma.

aromatase [2] = molecular target: T1, aromatase (Macaca mulatta, UniProt A0A1D5QZ23); assay: Replacement test with non-radiolabeled vorozole (PET binding potential); assay type: in vivo; design: allows quantifying aromatase in the brain with higher accuracy; from tissue; host or cells: brain of living male Rhesus macaques (amygdala, hypothalamus, nucleus accumbens); settings: Rhesus macaques; after non-radiolabeled VOR 100 μg/kg; compared with VOR
T1 sequence (A0A1D5QZ23 1-503): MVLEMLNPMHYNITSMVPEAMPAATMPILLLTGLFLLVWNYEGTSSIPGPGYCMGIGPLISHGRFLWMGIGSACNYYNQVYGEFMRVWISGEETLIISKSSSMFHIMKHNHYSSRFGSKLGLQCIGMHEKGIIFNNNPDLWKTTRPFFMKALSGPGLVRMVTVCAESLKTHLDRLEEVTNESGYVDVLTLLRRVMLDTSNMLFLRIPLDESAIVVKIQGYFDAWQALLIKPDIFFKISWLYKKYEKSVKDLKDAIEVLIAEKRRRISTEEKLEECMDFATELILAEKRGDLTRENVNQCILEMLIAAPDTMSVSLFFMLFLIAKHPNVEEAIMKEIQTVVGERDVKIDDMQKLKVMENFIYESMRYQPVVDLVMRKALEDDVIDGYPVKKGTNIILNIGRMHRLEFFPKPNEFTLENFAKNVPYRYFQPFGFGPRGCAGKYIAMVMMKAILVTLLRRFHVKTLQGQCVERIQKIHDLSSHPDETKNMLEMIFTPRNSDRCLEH
Method: 5 min before administration of the Compound (10), non-radiolabeled vorozole (VOR) (100 μg/kg) was administered, and binding potential (BP) of Rhesus macaques were observed.

aromatase [3] = molecular target: T2, aromatase (Rattus norvegicus, UniProt P22443); assay: In vitro binding test (ligand saturation, Scatchard plot analysis); design: species or system rats
T2 construct: from tissue; host or cells: rat ovary homogenate (female rats)
T2 sequence (P22443 1-508): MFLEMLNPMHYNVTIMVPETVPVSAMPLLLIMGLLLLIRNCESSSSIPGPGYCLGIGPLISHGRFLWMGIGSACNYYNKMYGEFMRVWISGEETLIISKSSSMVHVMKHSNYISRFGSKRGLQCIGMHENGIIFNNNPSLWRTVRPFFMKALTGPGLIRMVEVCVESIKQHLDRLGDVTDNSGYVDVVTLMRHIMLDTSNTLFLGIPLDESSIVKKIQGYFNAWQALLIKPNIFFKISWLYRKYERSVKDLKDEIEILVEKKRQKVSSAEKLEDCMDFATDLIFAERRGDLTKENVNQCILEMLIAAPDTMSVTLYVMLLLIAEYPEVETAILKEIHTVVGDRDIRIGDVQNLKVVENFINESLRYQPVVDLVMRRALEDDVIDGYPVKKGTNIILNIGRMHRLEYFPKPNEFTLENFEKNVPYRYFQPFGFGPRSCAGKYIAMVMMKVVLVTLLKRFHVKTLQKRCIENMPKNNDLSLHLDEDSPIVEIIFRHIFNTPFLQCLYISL
Method: Specifically, female rats were anesthetized with diethyl ether, and 0.01 M phosphate buffered saline (PBS, pH 7.4) was perfused via hearts. Ovaries of the rats were removed immediately and homogenized in 1 mL of a 0.32 M sucrose solution.
After filtration, counting was performed by a γ counter, and the average of KD was calculated by Scatchard plot analysis.

aromatase [4] = assay: PET measurement (binding potential images and SUV in brain regions); settings: for temporal change in SUV (standardized uptake value) in the latter part of scanning: Rhesus macaques, cerebellum, amygdala, hypothalamus, nucleus accumbens
Method: (§1) (i) Male Rhesus macaques were subjected to PET measurement. Specifically, Rhesus macaques were put under sedation with ketalar (10 mg/kg), and intravenous catheters for RI administration were attached to their legs. Thereafter, the Rhesus macaques were anesthetized using propofol (10 mg/kg/h), and were immobilized in a PET scanner.
(§2) After reconstructing images, binding potential (BP) images with cerebellum as a reference region were constructed. The binding potential used herein indicates a value obtained by dividing an association rate constant by a dissociation rate constant.
(§3) SUV is a value obtained by dividing radioactivity density per 1 ml of tissue by radioactivity density per 1 g of body weight, i.e. SUV=radioactivity density per 1 ml of tissue/radioactivity density per 1 g of body weight.

aromatase [5] = molecular target: T1, aromatase; assay: as above; settings: for specific binding in amygdala (binding potential images): male Rhesus macaques, i.v. 33 MBq/kg, 90 min scan, cerebellum as reference region; for binding potential (difference among the compounds): Rhesus macaques, relative to Compounds (10), (22), (33), (39)
Method: as §1, §2, §3

| SMILES | reuptake of labeled metabolite into the brain [1] | amount of replaced binding (considered nonspecific binding) (aromatase [2]) | affinity relative to VOR (aromatase [3]; from KD values) | Kd (aromatase [3]; homogenized rat ovaries, room temperature, 30 min, nonspecific binding with 1 μM non-radiolabeled VOR, read-out: dissociation constant (KD)) [nM] | temporal change in SUV (standardized uptake value) in the latter part of scanning (aromatase [4]) | nonspecific binding of the labeled compound to cerebral cortex etc. (aromatase [4]; male Rhesus macaques, compared to conventional [11C]vorozole) | specific binding in amygdala (binding potential images) (aromatase [5]) | binding potential (difference among the compounds) (aromatase [5]) |
| --- | --- | --- | --- | --- | --- | --- | --- | --- |
| [11CH3]c1ccc(CN(c2ccc(C#N)cc2)n2cnnc2)cc1 [Compound (10), 4-{(4-[^11C]Methylbenzyl)(4H-1,2,4-triazol-4-yl)amino}benzonitrile] | such reuptake was not observed | smaller amount of replaced binding than the case of VOR | approximately twice higher affinity than VOR | 0.3 | decreases as time passes | decreased | specific binding was observed in amygdala |  |
| [11CH3]c1ccc(CN(c2ccc([N+](=O)[O-])cc2)n2cnnc2)cc1 [Compound (33), 4-{(4-[^11C]Methylbenzyl)(4H-1,2,4-triazol-4-yl)amino}nitrobenzene] |  |  |  |  | decreases as time passes |  | specific binding was observed in amygdala |  |
| [11CH3]c1ccc(CN(c2ccc(C#N)cc2)n2cncn2)cc1 [Compound (39), 4-{(4-[^11C]Methylbenzyl)(1H-1,2,4-triazol-1-yl)amino}benzonitrile] |  |  |  |  | decreases as time passes |  | specific binding was observed in amygdala | relatively high binding potential |
| [11CH3]c1cccc(CN(c2ccc(C#N)cc2)n2cnnc2)c1 [Compound (22), 4-{(3-[^11C]Methylbenzyl)(4H-1,2,4-triazol-4-yl)amino}benzonitrile] |  |  |  |  | decreases as time passes |  | specific binding was observed in amygdala | relatively low binding potential |
